The record followed here is ChEMBL document CHEMBL6083208, “Integrating amino acids into Bcr-Abl inhibitors: design, synthesis, biological evaluation, and in silico studies” (RSC Med Chem, 2024).

The source made the active and inactive calls. The calls are words filed in the database; no cut-off is given here.

Series [1] concerns the target Bcr/Abl fusion protein (Homo sapiens, UniProt P00519). As to the kind of experiment: Inhibition of wild type Bcr-Abl (unknown origin) using Abltide as substrate incubated for 1 hr by luminescence based ADP-glo assay. Format: protein assay. (In general: In ADP-Glo the light output rises with the ADP produced.)
Series [2] can be described thus: Inhibition of Bcr-Abl T315Ialpha mutant (unknown origin) using Abltide as substrate incubated for 1 hr by luminescence based ADP-glo assay. Further details: species or system Homo sapiens.
In series [3] the test system is BaF3. As to the kind of experiment: Antiproliferative activity against mouse BaF3 cells harbouring Bcr-Abl T315I assessed of cell viability at 30 uM incubated for 72 hrs by Celltiter-glo luminescent cell viability assay relative to control. It counts as functional. For orientation: Cellular ATP, detected with luciferase, serves as a proxy for viable cell number.
Series [4] has as its system BaF3. As to the kind of experiment: Antiproliferative activity against mouse BaF3 cells harbouring Bcr-Abl T315I assessed of cell viability at 10 uM incubated for 72 hrs by Celltiter-glo luminescent cell viability assay relative to control. Format: functional.
The test system of series [5] is BaF3. As to the kind of experiment: Antiproliferative activity against mouse BaF3 cells harbouring Bcr-Abl T315I assessed of cell viability at 2 uM incubated for 72 hrs by Celltiter-glo luminescent cell viability assay relative to control. It counts as functional.
The test system of series [6] is HEK293. As to the kind of experiment: Antiproliferative activity against HEK293 cells after 48 hrs by MTT assay. Format: toxicity, cell-based. As to conditions: human, hek293, 48 h. Further details: concentration or dose not given beside the values. For orientation: Tetrazolium dyes change colour on reduction, which living cells bring about.
Series [7] concerns THP-1. As to the kind of experiment: Antiproliferative activity against human THP-1 cells after 48 hrs by MTT assay. Format: functional. Further details: concentration or dose not given beside the values.
Series [8] has as its system K562. As to the kind of experiment: cells. As to conditions: Homo sapiens, K562, 48 h.
For series [9], the system named is K562. As to the kind of experiment: Induction of apoptosis in human K562 cells assessed as viable cells at 1 uM measured after 48 hrs by annexin-V/FITC and propidium iodide double staining based flow cytometry analysis (reference value: 92.67%). Format: functional. As to conditions: read-out: Activity.
Series [10] concerns K562. As to the kind of experiment: Induction of apoptosis in human K562 cells assessed as viable cells at 10 uM measured after 48 hrs by annexin-V/FITC and propidium iodide double staining based flow cytometry analysis (reference value: 92.67%). It counts as functional. As to conditions: read-out: Activity.
In series [11] the test system is K562. As to the kind of experiment: Induction of apoptosis in human K562 cells assessed as viable cells at 15 uM measured after 48 hrs by annexin-V/FITC and propidium iodide double staining based flow cytometry analysis (reference value: 92.67%). As to conditions: read-out: Activity. Format: functional.
The test system of series [12] is K562. As to the kind of experiment: Induction of apoptosis in human K562 cells assessed as early apoptotic cells at 1 uM measured after 48 hrs by annexin-V/FITC and propidium iodide double staining based flow cytometry analysis (reference value: 3.57%). It counts as functional.
The subject of series [13] is K562. As to the kind of experiment: Induction of apoptosis in human K562 cells assessed as early apoptotic cells at 10 uM measured after 48 hrs by annexin-V/FITC and propidium iodide double staining based flow cytometry analysis (reference value: 3.57%). Format: functional.
Series [14] concerns K562. As to the kind of experiment: Induction of apoptosis in human K562 cells assessed as early apoptotic cells at 15 uM measured after 48 hrs by annexin-V/FITC and propidium iodide double staining based flow cytometry analysis (reference value: 3.57%). It counts as functional.
The test system of series [15] is K562. As to the kind of experiment: Induction of apoptosis in human K562 cells assessed as late apoptotic cells at 1 uM measured after 48 hrs by annexin-V/FITC and propidium iodide double staining based flow cytometry analysis (reference value: 2.72%). It counts as functional.
The test system of series [16] is K562. As to the kind of experiment: Induction of apoptosis in human K562 cells assessed as late apoptotic cells at 10 uM measured after 48 hrs by annexin-V/FITC and propidium iodide double staining based flow cytometry analysis (reference value: 2.72%). Format: functional.
In series [17] the test system is K562. As to the kind of experiment: Induction of apoptosis in human K562 cells assessed as late apoptotic cells at 15 uM measured after 48 hrs by annexin-V/FITC and propidium iodide double staining based flow cytometry analysis (reference value: 2.72%). It counts as functional.
The subject of series [18] is K562. As to the kind of experiment: Induction of apoptosis in human K562 cells assessed as necrotic cells at 1 uM measured after 48 hrs by annexin-V/FITC and propidium iodide double staining based flow cytometry analysis (reference value: 1.05%). It counts as functional.
Series [19] has as its system K562. As to the kind of experiment: Induction of apoptosis in human K562 cells assessed as necrotic cells at 10 uM measured after 48 hrs by annexin-V/FITC and propidium iodide double staining based flow cytometry analysis (reference value: 1.05%). It counts as functional.
Series [20] concerns K562. As to the kind of experiment: Induction of apoptosis in human K562 cells assessed as necrotic cells at 15 uM measured after 48 hrs by annexin-V/FITC and propidium iodide double staining based flow cytometry analysis (reference value: 1.05%). Format: functional.
For series [21], the system named is K562. As to the kind of experiment: Induction of cell cycle arrest in human K562 cells assessed as reduction in accumulation of cells at S phase at 1 to 20 uM measured after 48 hrs by PI staining based flow cytometry analysis. It counts as functional. As to conditions: dose 1-20 µM.
The subject of series [22] is K562. As to the kind of experiment: Induction of cell cycle arrest in human K562 cells assessed as increase in accumulation of cells at G0/G1 phase at 1 to 20 uM measured after 48 hrs by PI staining based flow cytometry analysis. It counts as functional. As to conditions: dose 1-20 µM.
Series [23] deals with K562. As to the kind of experiment: Induction of cell cycle arrest in human K562 cells assessed as increase in accumulation of cells at G2/M phase at 1 to 20 uM measured after 48 hrs by PI staining based flow cytometry analysis. Format: functional. As to conditions: dose 1-20 µM.
The target in series [24] is T1, Bcr/Abl fusion protein (Homo sapiens) (UniProt P00519+P11274). As to the kind of experiment: Inhibition of wild type BCR-ABL in human K562 cells assessed as inhibition of Bcr-Abl phosphorylation level at 1 uM measured after 48 hrs by Western blot analysis. It counts as cell-based.
T1 sequence (P00519 whole entry, looked up, the tested form may be a part): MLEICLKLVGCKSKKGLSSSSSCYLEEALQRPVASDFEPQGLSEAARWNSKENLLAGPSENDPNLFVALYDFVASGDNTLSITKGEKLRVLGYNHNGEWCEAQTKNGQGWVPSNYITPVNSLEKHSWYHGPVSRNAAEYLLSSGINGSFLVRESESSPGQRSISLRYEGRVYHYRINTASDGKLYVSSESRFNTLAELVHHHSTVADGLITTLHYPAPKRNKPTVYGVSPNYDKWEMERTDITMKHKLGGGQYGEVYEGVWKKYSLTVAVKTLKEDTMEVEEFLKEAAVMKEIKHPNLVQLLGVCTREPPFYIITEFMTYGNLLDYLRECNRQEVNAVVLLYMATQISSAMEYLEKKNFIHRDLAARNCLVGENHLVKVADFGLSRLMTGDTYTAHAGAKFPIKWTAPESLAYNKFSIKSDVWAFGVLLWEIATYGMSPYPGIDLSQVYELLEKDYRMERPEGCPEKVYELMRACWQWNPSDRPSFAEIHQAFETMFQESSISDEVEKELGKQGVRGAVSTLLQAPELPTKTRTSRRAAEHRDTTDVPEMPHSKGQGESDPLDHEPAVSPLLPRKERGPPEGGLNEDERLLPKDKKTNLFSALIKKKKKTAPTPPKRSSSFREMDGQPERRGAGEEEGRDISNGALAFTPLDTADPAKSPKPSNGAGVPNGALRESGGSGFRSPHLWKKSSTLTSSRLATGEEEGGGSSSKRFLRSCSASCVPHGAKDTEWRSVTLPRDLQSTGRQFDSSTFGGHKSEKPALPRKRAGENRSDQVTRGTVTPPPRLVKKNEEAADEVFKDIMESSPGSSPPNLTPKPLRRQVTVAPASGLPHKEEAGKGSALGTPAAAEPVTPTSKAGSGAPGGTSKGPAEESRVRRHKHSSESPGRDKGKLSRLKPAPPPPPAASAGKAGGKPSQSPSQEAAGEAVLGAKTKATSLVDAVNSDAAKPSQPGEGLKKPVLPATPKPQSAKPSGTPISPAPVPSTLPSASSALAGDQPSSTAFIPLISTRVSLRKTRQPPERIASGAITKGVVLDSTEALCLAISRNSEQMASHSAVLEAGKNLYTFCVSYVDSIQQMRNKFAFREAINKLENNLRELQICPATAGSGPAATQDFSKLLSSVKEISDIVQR
T1 sequence (P11274 whole entry, looked up, the tested form may be a part): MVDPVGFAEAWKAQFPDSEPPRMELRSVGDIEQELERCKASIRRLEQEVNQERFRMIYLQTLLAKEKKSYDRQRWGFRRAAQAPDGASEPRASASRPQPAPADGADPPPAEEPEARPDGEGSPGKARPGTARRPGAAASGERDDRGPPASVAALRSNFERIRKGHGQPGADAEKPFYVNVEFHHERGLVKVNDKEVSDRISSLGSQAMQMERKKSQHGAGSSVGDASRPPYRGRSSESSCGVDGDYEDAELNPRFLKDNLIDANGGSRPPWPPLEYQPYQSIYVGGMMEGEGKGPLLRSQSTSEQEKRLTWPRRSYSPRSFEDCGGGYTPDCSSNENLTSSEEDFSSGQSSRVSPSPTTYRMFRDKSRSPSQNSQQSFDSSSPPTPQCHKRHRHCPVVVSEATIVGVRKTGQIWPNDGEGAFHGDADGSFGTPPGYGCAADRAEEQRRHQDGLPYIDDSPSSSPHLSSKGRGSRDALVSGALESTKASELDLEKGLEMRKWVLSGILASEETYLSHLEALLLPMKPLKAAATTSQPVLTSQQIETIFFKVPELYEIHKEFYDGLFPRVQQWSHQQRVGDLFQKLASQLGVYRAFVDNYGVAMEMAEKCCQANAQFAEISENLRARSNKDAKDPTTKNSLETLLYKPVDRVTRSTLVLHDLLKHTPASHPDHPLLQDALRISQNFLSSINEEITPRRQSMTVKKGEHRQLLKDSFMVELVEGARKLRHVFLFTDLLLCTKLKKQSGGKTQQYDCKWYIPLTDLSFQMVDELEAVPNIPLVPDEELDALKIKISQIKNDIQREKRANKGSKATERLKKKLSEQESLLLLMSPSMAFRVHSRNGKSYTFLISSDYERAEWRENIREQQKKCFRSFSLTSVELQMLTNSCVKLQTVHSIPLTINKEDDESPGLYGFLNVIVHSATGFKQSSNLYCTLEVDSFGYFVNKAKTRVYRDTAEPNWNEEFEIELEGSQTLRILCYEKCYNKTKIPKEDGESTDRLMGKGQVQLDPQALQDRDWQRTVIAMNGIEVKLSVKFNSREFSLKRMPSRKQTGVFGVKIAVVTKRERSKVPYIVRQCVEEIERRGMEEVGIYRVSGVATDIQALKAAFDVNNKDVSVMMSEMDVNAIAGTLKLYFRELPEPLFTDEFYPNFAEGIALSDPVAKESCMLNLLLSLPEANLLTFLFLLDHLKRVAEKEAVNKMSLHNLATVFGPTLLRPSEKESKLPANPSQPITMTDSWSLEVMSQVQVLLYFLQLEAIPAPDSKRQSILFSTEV
Series [25] has as its target T1, Bcr/Abl fusion protein (Homo sapiens). As to the kind of experiment: Inhibition of wild type BCR-ABL in human K562 cells assessed as inhibition of STAT5 phosphorylation level measured after 48 hrs by Western blot analysis. Format: cell-based. As to conditions: dose 0.1-15 µM.
The target is the same in series [26]. As to the kind of experiment: Inhibition of wild type BCR-ABL in human K562 cells assessed as inhibition of Bcr-Abl phosphorylation level at 20 uM measured after 48 hrs by Western blot analysis. Format: cell-based.
Series [27] has the same target. As to the kind of experiment: Inhibition of wild type BCR-ABL in human K562 cells assessed as inhibition of STAT5 phosphorylation level at 20 uM measured after 48 hrs by Western blot analysis. It counts as cell-based.

Sequence of Bcr/Abl fusion protein (P00519 whole entry, the tested form may be a part): as the sequence (P00519 whole entry, looked up, the tested form may be a part) above
Sequence of Bcr/Abl fusion protein (P11274 whole entry, further chain, the tested form may be a part): as the sequence (P11274 whole entry, looked up, the tested form may be a part) above

The term IC50 denotes the point on the concentration scale where inhibition reaches its midpoint. Usually inhibition stands for the relative decrease from the control value, in per cent. On to `CC(=O)Nc1ccc(-c2cccc(C(=O)N[C@@H](CO)C(=O)Nc3ccc(Cl)c(C(F)(F)F)c3)c2)cn1`, for which the IC50 came to 0.33 nM in series [1], 66 nM in series [2] and 0.85 nM in series [8]. Besides, the inhibition at 30 µM in series [3] stood at 90%. Further, the inhibition at 10 µM in series [4] turned out to be 24.5%. Also, the inhibition at 2 µM in [5] was -1.17%. The Activity in [6] was 85%; in series [7], 100%.
As for `CC(C)(C)OC[C@H](NC(=O)c1ccc(-c2ccnc(N)c2)cc1)C(=O)Nc1ccc(Cl)c(C(F)(F)F)c1`, the IC50 in series [1] is 0.87 nM; in series [2], 144 nM; in series [8], 3.02 nM. Besides, the inhibition at 30 µM in series [3] is 99.8%. Besides, the inhibition at 10 µM in [4] stood at 25.5%. Besides, in series [5], the inhibition at 2 µM was determined as 0.7%. Moreover, the Activity in series [6] was determined as 94%; in series [7], 56%.
For the molecule `CC(C)(C)OC[C@H](NC(=O)c1cccc(-c2ccc(NS(C)(=O)=O)nc2)c1)C(=O)Nc1ccc(Cl)c(C(F)(F)F)c1`, the figures for the IC50 in series [1], in series [2] and in series [8] were 10.6 nM, 138 nM and 2.59 nM, respectively. Further, the inhibition at 30 µM in series [3] stood at 96.7%. Besides, the inhibition at 10 µM in [4] was found to be 99.9%. For the same molecule, the inhibition at 2 µM in [5] is 0.62%. Also, the Activity is given as 88% in series [6] and 77% in series [7].
As to `CC(C)(C)C(=O)Nc1ccc(-c2cccc(C(=O)N[C@H](C(=O)Nc3ccc(Cl)c(C(F)(F)F)c3)C(C)(C)C)c2)cn1`, the results for the IC50 in series [1], in series [2] and in series [8] were 26.5 nM, 351 nM and 0.97 nM, respectively. Moreover, the inhibition at 30 µM in [3] amounted to 98.1%. Further, the inhibition at 10 µM in series [4] came to 100%. For the same molecule, in series [5], the inhibition at 2 µM is 99.9%. The Activity in series [6] amounted to 81%; in series [7], 73%.
On to `CC(C)(C)[C@H](NC(=O)c1ccc(-c2cncc(C(=O)NC3CC3)c2)cc1)C(=O)Nc1ccc(Cl)c(C(F)(F)F)c1`, for which the results for the half-inhibitory concentration (IC50) in series [1], in series [2] and in [8] were 8.02 nM, 140 nM and 3.34 nM, respectively. In series [3], the inhibition at 30 µM turned out to be 100%. The inhibition at 10 µM in series [4] was determined as 42.6%. The inhibition at 2 µM in series [5] came to 5.84%. Moreover, the Activity was 91% in series [6] and 100% in series [7].
For the molecule `CC(=O)Nc1cc(-c2ccc(C(=O)N[C@H](C(=O)Nc3ccc(Cl)c(C(F)(F)F)c3)C(C)(C)C)cc2)ccn1`, the figures for the IC50 in series [1], in [2] and in series [8] were 9.9 nM, 180 nM and 3.31 nM, respectively. The inhibition at 30 µM in series [3] is 99.8%. The inhibition at 10 µM in [4] came to 31.8%. In addition, in series [5], the inhibition at 2 µM stood at 4.64%. For the same molecule, the values for the Activity in [6] and in series [7] were 88% and 68%, respectively.
For `CC(C)(C)[C@H](NC(=O)c1ccc(-c2ccnc(NS(C)(=O)=O)c2)cc1)C(=O)Nc1ccc(Cl)c(C(F)(F)F)c1`, the half-inhibitory concentration (IC50) was determined as 3.93 nM in series [1], 66.9 nM in [2] and 0.93 nM in [8]. Moreover, the inhibition at 30 µM in series [3] was found to be 100%. Further, the inhibition at 10 µM in series [4] is 36.1%. For the same molecule, in series [5], the inhibition at 2 µM came to 8.95%. Also, the Activity stood at 81% in [6] and 100% in [7].
For `CC(C)(C)[C@H](NC(=O)c1cccc(-c2ccc(NS(C)(=O)=O)nc2)c1)C(=O)Nc1ccc(Cl)c(C(F)(F)F)c1`, the IC50 in [1] is 1.44 nM; in [2], 48 nM; in series [8], 0.61 nM. Also, the inhibition at 30 µM in series [3] came to 99.6%. In addition, in [4], the inhibition at 10 µM is 100%. In addition, the inhibition at 2 µM in [5] came to 10%. Further, the Activity in series [6] worked out at 100%; in series [7] it was 65%; in series [12], 7.15%; in series [13], 8.2%; in series [14], 8.69%; in series [15] it was 4.45%. The Activity is given as 8.64% in series [16]; 8.48% in [17]; 0.17% in series [18]; 0.4% in series [19]; 0.28% in series [20]. Moreover, the viability at 1 µM in series [9] is 88.2%. Besides, the viability at 10 µM in [10] came out at 82.8%. Further, the viability at 15 µM in series [11] stood at 82.5%. For the same molecule, the outcome in series [21], in series [22] and in [23] was Active. For the same molecule, the inhibition entry in series [24], in [26] and in [27] was “Active” each time. Also, the inhibition result in [25] was “Dose-dependent-effect”.
`CC(C)(C)OC[C@H](NC(=O)c1ccc(-c2ccnc(NS(C)(=O)=O)c2)cc1)C(=O)Nc1ccc(Cl)c(C(F)(F)F)c1`: the IC50 was determined as 0.33 nM in series [1], 51 nM in [2] and 0.19 nM in series [8]. In [3], the inhibition at 30 µM came out at 96.7%. Also, the inhibition at 10 µM in [4] worked out at 27.6%. In addition, in [5], the inhibition at 2 µM was determined as 7.49%. The Activity in series [6] is recorded as 93%; in series [7] it was 94%.
